Converted amounts (≈) assume the structure as drawn.
Columns and labels:
[1] = Approximate water solubility by solvent addition method (visual inspection of complete dissolution)
Procedure: The approximate water solubility of Form A and amorphous Rebaudioside X were determined by a solvent addition method in which a weighed sample was treated with aliquots of water. The mixture was generally vortexed and/or sonicated between additions to facilitate dissolution. Complete dissolution of the test material was determined by visual inspection. Solubility was estimated based on the total solvent used to provide complete dissolution. The actual solubility may be greater than the value calculated because of the use of solvent aliquots that were too large or due to a slow rate of dissolution.

[2] = Water solubility of starting sample and spray-dried product (Example 4); format: physicochemical
[3] = Duration of clarity of aqueous solutions at various test material/water ratios, with or without filtration (Example 9); format: physicochemical
From the text: The water solubility of amorphous Rebaudioside X prepared according to Example 4 was compared in various test material/water ratios with or without filtration prior to solubility determination. Generally, filtration performed after dissolution of sample assist the duration of clarity of the sample (or delays the precipitation/recrystallization of sample). […]

[4] = Equilibrium solubility in water by UV absorbance at 205 nm (Example 10); format: physicochemical; conditions: 25°C; for Original Sample Concentration: 250 mg in 10 mL water
Procedure: Samples were analyzed with a Cary 50 UV-Vis dual beam spectrophotometer. The detector was zeroed with a cuvette filled with water prior to sample analysis. Samples were analyzed at room temperature in 1.0 cm quartz cuvette using a scan rate of 600 nm/min in a range of 200 - 400 nm.
25.8 mg of amorphous Rebaudioside X was added to a 10-mL volumetric flask and dissolved 10 mL with water. This stock solution was diluted to five concentration levels for UV measurement.
A calibration curve at 205 nm was established (Abs at 205 nm vs. concentration) to provide the equation y = 5.0625x + 0.0022. R^2 was 0.9999. This equation was used for the subsequent determination of Rebaudioside X concentrations.
250 mg of amorphous Rebaudioside X was added to an amber vial and 10 mL of water was added. The mixture was stirred at room temperature about 10 minutes to yield a transparent solution with only small amount of solid remaining. The mixture became opaque rapidly. The mixture was placed on a mechanical oscillator set at a speed of 250 and 25°C. At the sampling time point of 1, 16, 24, 48, 72, 96, and 192 hours, an aliquot of the slurry was transferred to a centrifuge tube and separated at a speed of 16K rcf for 15 minutes. 200 µL of the clear supernatant was transferred to a 50-mL volumetric flask, 10 mL of water was added and mixed well before UV analysis.

[5] = Dynamic Vapor Sorption (DVS) isotherm; format: physicochemical
Procedure: The Dynamic Vapor Sorption (DVS) DVS data were collected on a VTI SGA-100 Vapor Sorption Analyzer. NaCl and PVP were used as calibration standards. The sample was not dried prior to analysis. Sorption and desorption data were collected over a range from 5 to 95% RH at 10% RH increments under a nitrogen purge. The equilibrium criterion used for analysis was less than 0.0100% weight change in 5 minutes with a maximum equilibration time of 3 hours. Data were not corrected for the initial moisture content of the samples.

[6] = Table 6, water, solvent addition

Question: With `C=C1C[C@@]23CC[C@H]4[C@@](C)(CCC[C@@]4(C)C(=O)O[C@@H]4O[C@H](CO)[C@@H](O)[C@H](O[C@@H]5O[C@H](CO)[C@@H](O)[C@H](O)[C@H]5O)[C@H]4O[C@@H]4O[C@H](CO)[C@@H](O)[C@H](O)[C@H]4O)[C@@H]2CC[C@]1(O[C@@H]1O[C@H](CO)[C@@H](O)[C@H](O[C@@H]2O[C@H](CO)[C@@H](O)[C@H](O)[C@H]2O)[C@H]1O[C@@H]1O[C@H](CO)[C@@H](O)[C@H](O)[C@H]1O)C3` [Amorphous (water process)] as the molecule, how does the “Approximate Water Solubility” value [1, 6] read?
Answer: Its value is greater than 10000 µg/mL.

Question: Which water solubility [2] does the source give for `C=C1C[C@@]23CC[C@H]4[C@@](C)(CCC[C@@]4(C)C(=O)O[C@@H]4O[C@H](CO)[C@@H](O)[C@H](O[C@@H]5O[C@H](CO)[C@@H](O)[C@H](O)[C@H]5O)[C@H]4O[C@@H]4O[C@H](CO)[C@@H](O)[C@H](O)[C@H]4O)[C@@H]2CC[C@]1(O[C@@H]1O[C@H](CO)[C@@H](O)[C@H](O[C@@H]2O[C@H](CO)[C@@H](O)[C@H](O)[C@H]2O)[C@H]1O[C@@H]1O[C@H](CO)[C@@H](O)[C@H](O)[C@H]1O)C3` [amorphous Rebaudioside X, (13-[2-O-β-D-glucopyranosyl-3-O-β-D-glucopyranosyl-β-D-glucopyranosyl)oxy] ent kaur-16-en-19-oic acid-[2-O-β-D-glucopyranosyl-3-O-β-D-glycopyranosyl) ester] here?
Answer: The water solubility was “greater than 1%”.

Question: And the “Duration of Clarity of Sample” value ([3]; Sample 1: 250 mg/500 mL water, not filtered)?
Answer: Its value is greater than 60 days^a.

Question: What about the “Duration of Clarity of Sample” value ([3]; Sample 2: 500 mg/500 mL water, not filtered) of the same molecule?
Answer: Its value is greater than 60 days^a.

Question: And the “Duration of Clarity of Sample” value ([3]; Sample 3: 750 mg/500 mL water, not filtered)?
Answer: The value was greater than 0.12 days.

Question: What about the “Duration of Clarity of Sample” value ([3]; Sample 5: 625 mg/250 mL water, filtered (0.22 µm membrane)) of the same molecule?
Answer: Its value is greater than 1 days.

Question: What about the “Duration of Clarity of Sample” value ([3]; Sample 6: 1750 mg/500 mL water, not filtered) of the same molecule?
Answer: The value was “∼3 h”.

Question: And the “Duration of Clarity of Sample” value ([3]; Sample 7: 1750 mg/500 mL water, filtered (0.22 µm membrane))?
Answer: The value was greater than 1 days.

Question: What about the “Duration of Clarity of Sample” value ([3]; Sample 8: 1000 mg/100 mL water, filtered (0.22 µm membrane)) of the same molecule?
Answer: The value was “∼2 h”.

Question: What about the “Original Sample Concentration” value ([4]; sampling time 1 hrs) of the same molecule?
Answer: Its value is 5.8 mg/mL.

Question: And the “Original Sample Concentration” value ([4]; sampling time 16 hrs)?
Answer: The value was 2.7 mg/mL.

Question: What about the “Original Sample Concentration” value ([4]; sampling time 24 hrs) of the same molecule?
Answer: Its value is 2.6 mg/mL.

Question: And the “Original Sample Concentration” value ([4]; sampling time 48 hrs)?
Answer: The value was 2.5 mg/mL.

Question: What about the “Original Sample Concentration” value ([4]; sampling time 72 hrs) of the same molecule?
Answer: Its value is 2.8 mg/mL.

Question: What about the “Original Sample Concentration” value ([4]; sampling time 96 hrs) of the same molecule?
Answer: The value was 2.8 mg/mL.

Question: And the “Original Sample Concentration” value ([4]; sampling time 192 hrs)?
Answer: Its value is 2.6 mg/mL.

Question: What about the solubility thermodynamic ([4]; water) of the same molecule?
Answer: Its solubility thermodynamic is 2600 µg/mL (≈ 2010 µM).

Question: What about the “time until equilibrium was established” value ([4]; water) of the same molecule?
Answer: Its value is no more than 16 h.

Question: And the “weight loss upon desorption” value ([5]; DVS desorption from 95% to 5% RH)?
Answer: The value was 26.0 wt%.

Question: And the “weight gain with increasing relative humidity” value ([5]; DVS sorption from 5% to 95% RH)?
Answer: The value was 26.3 wt%.

Question: What about the “weight loss upon equilibration at 5% RH” value ([5]; DVS, 5% RH) of the same molecule?
Answer: Its value is 3.1 wt%.

Question: What about the approximate solubility ([1]; aqueous, grams of Rebaudioside X per 100 mL water) of the same molecule?
Answer: The approximate solubility was “greater than 0.3%”.

Question: What does the source list for `C=C1C[C@@]23CC[C@H]4[C@@](C)(CCC[C@@]4(C)C(=O)O[C@@H]4O[C@H](CO)[C@@H](O)[C@H](O[C@@H]5O[C@H](CO)[C@@H](O)[C@H](O)[C@H]5O)[C@H]4O[C@@H]4O[C@H](CO)[C@@H](O)[C@H](O)[C@H]4O)[C@@H]2CC[C@]1(O[C@@H]1O[C@H](CO)[C@@H](O)[C@H](O[C@@H]2O[C@H](CO)[C@@H](O)[C@H](O)[C@H]2O)[C@H]1O[C@@H]1O[C@H](CO)[C@@H](O)[C@H](O)[C@H]1O)C3` [Form A Rebaudioside X, (13-[2-O-β-D-glucopyranosyl-3-O-β-D-glucopyranosyl-β-D-glucopyranosyl)oxy] ent kaur-16-en-19-oic acid-[2-O-β-D-glucopyranosyl-3-O-β-D-glycopyranosyl) ester]?
Answer: water solubility [2]: 0.05%; Approximate Water Solubility [1, 6]: 1400 µg/mL; Approximate Water Solubility ([1]; discussion text of Example 13): 14000 µg/mL
